{
  "source": "paper PMC11320730",
  "about": "“5-Methoxy-2-aminoindane Reverses Diet-Induced Obesity and Improves Metabolic Parameters in Mice: A Potential New Class of Antiobesity Therapeutics” (ACS Pharmacology & Translational Science, 2024)",
  "key": {"[1]": {"test_system": "C57Bl/6 mice", "experiment": "Acute single oral dose of MEAI: drug tolerability", "format": "in vivo", "details": "lean male mice", "protocol": "(§1) Male 6-week-old C57Bl/6 mice (Harlan, Israel) were maintained in standard conditions under a 12 h light/dark cycle and fed ad libitum. A total of 32 animals were divided into four experimental groups (N = 8 mice per group) receiving single doses of 40, 60, or 100 mg/kg of MEAI or vehicle (sterile water), which was administered via oral gavage 2 h prior to the dark phase. The animals were monitored for 48 h postdose for drug tolerability, food and water intakes, and activity and metabolic parameters. At the end of the experiment, the animals were euthanized, and tissues (brain, liver, fat, and kidney) and blood were collected and stored in a frozen state for future analyses."}, "[2]": {"test_system": "C57Bl/6 mice", "experiment": "Acute effect of MEAI on food and water intake and metabolic parameters (Promethion)", "format": "in vivo", "details": "lean male mice, vs vehicle", "protocol": "as §1\nThe metabolic profiles and food and water intakes of the mice were assessed using the Promethion High-Definition Behavioral Phenotyping System (Sable Instruments, Inc., Las Vegas, Nevada, USA). MetaScreen software version 2.2.18.0 was used for data acquisition and instrument control. Raw data were processed using ExpeData version 1.8.4 with an analysis script detailing all aspects of the data transformation. Mice with free access to food and water, housed at temperatures of (22–23 °C), were subjected to a standard 12 h light/12 h dark cycle, which consisted of a 48 h acclimation period followed by 24 h of sampling after dosing. Respiratory gases were measured using the GA-3 gas analyzer (Sable Systems, Inc., Las Vegas, Nevada, USA) employing a pull-mode negative-pressure system. Airflow was measured and controlled by an FR-8 instrument (Sable Systems, Inc., Las Vegas, Nevada, USA) at a flow rate of 2000 mL/min. Water vapor was continuously measured, and its dilution effect on O2 and CO2 was mathematically compensated. Respiratory exchange rate (RER) was calculated as the ratio of CO2 produced (VCO2) to O2 consumed (VO2) using eq 1): [drawing 1] 1\nTotal energy expenditure (TEE) was calculated using VO2 and RER, according to eq 2: [drawing 2] 2\nFat oxidation (FO) and carbohydrate oxidation (CHO) were calculated using VO2 and VCO2 based on eqs 3 and 4, respectively: [drawing 3] 3 [drawing 4] 4\nEnergy balance and energy flux were derived from eqs 5 and 6: [drawing 5] 5 [drawing 6] 6"}, "[3]": {"test_system": "liver of DIO C57BL/6 mice", "experiment": "Liver weight, hepatic triglyceride and cholesterol contents, histopathology and Oil Red O staining in DIO mice", "format": "in vivo", "details": "40 mg/kg/day", "protocol": "(§2) Male C57BL/6 mice were used to establish DIO by feeding them a high-fat diet (HFD; 60% cal/L fat, 20% cal/L protein, and 20% cal/L carbohydrates; Research Diet, D12492) for 18 weeks. After this period, mice were treated with either vehicle (sterile water, N = 8) or MEAI (N = 11) daily for 28 days by gavage at a dose of 40 mg/kg/day. Age-matched control mice (N = 10) on a standard diet (STD; 14% kcal fat, 24% kcal protein, 62% kcal carbohydrates; NIH-31 rodent diet) received vehicle daily. The body weight of all mice was monitored daily, and total body fat and lean mass were determined by EchoMRI-100H (Echo Medical Systems LLC, Houston, Texas, USA). On day 29, at the end of the experimental period, mice were euthanized by a cervical dislocation under anesthesia. The kidneys, brain, liver, and fat pads were removed and weighed, and samples were either snap-frozen or fixed in buffered 4% formalin. Trunk blood was collected to determine the biochemical parameters.\nAt the time of animal sacrifice, liver tissue was extracted following the established protocol described previously.[19] The extracted liver tissue was then analyzed for cholesterol and triglyceride contents using a Cobas C-111 chemistry analyzer (Roche, Switzerland).\nParaffin-embedded liver sections (5 μm) from five animals per group were processed for hematoxylin–eosin staining. Liver images were captured using a Zeiss Axio Scope A1 light microscope (Carl Zeiss AG, Jena, Germany) equipped with a Zeiss AxioCam ICc 5 color camera. Ten random 40× fields of view were taken from each animal to obtain representative images.\nLiver cryosections (8 μm) were stained with Oil Red O (Cat# ab150678; Abcam, Cambridge, UK) following the manufacturer’s protocol. Images were acquired as described above. For quantitative analysis of Oil Red O staining, the area of lipid droplets in the liver cryosections was measured using ImageJ software."}, "[4]": {"test_system": "hepatic lipid metabolism genes", "experiment": "Real-time PCR of liver mRNA in DIO mice", "format": "in vivo", "details": "40 mg/kg/day", "protocol": "as §2\nmRNA from livers was extracted using a Bio-Tri RNA lysis buffer (Bio-Lab, Israel), followed by DNase I treatment (Thermo Scientific, Illinois, USA), and reverse transcribed using the qScript cDNA Synthesis kit (Quantabio, Beverly, Massachusetts, USA). Real-time PCR was performed using an iTaq Universal SYBR Green Supermix (Bio-Rad, California, USA) and the CFX connect ST system (Bio-Rad, California, USA). The full list of primers is available as Table S1."}, "[5]": {"test_system": "norepinephrine transporter (NET)", "design": "method as in PMID 30904940", "details": "cited from earlier work"}, "[6]": {"test_system": "5-HT2B receptor", "design": "method as in PMID 29458138", "details": "cited from earlier work"}},
  "data": [
    {"compound": "COc1ccc2c(c1)CC(N)C2.Cl", "note": "(stereo not drawn) [MEAI, 2,3-Dihydro-5-methoxy-1H-inden-2-amine hydrochloride]", "values": [
      {"measurement": "deaths after dosing", "setting": "[1]; single oral dose 100 mg/kg, within a few hours", "result": "two subjects in the 100 mg/kg group died"},
      {"measurement": "drug tolerability", "setting": "[1]; single oral dose, 40 and 60 mg/kg", "result": "well-tolerated"},
      {"measurement": "hourly average energy expenditure (TEE/h)", "setting": "[2]; single oral dose 40, 60 or 100 mg/kg, across 24 h", "result": "significant dose-dependent increase"},
      {"measurement": "feeding patterns (food intake)", "setting": "[2]; single oral dose 40, 60 or 100 mg/kg, dark and light phases", "result": "did not reach statistical significance"},
      {"measurement": "water consumption", "setting": "[2]; single oral dose 40, 60 or 100 mg/kg", "result": "no notable changes"},
      {"measurement": "respiratory exchange ratio (RER)", "setting": "[2]; single oral dose 60 and 100 mg/kg, light phase", "result": "markedly increased"},
      {"measurement": "carbohydrate oxidation (CHO) rate", "setting": "[2]; single oral dose, higher doses", "result": "elevations"},
      {"measurement": "fat oxidation (FO) rate", "setting": "[2]; single oral dose, higher doses", "result": "elevations"},
      {"measurement": "total daily TEE", "setting": "[2]; single oral dose, particularly at 60 mg/kg", "result": "significant elevation"},
      {"measurement": "carbon dioxide production (VCO2)", "setting": "[2]; single oral dose", "result": "increases"},
      {"measurement": "energy balance", "setting": "[2]; single oral dose", "result": "did not lead to immediate changes"},
      {"measurement": "oxygen consumption (VO2)", "setting": "[2]; single oral dose", "result": "increases"},
      {"measurement": "Oil Red O staining of liver", "setting": "[3]; DIO mice, vs HFD vehicle", "result": "decrease"},
      {"measurement": "hepatic cholesterol levels", "setting": "[3]; DIO mice, vs HFD vehicle", "result": "trend toward a reduction"},
      {"measurement": "lipid vacuole numbers in liver", "setting": "[3]; DIO mice, vs HFD vehicle", "result": "reduced"},
      {"measurement": "liver triglycerides", "setting": "[3]; DIO mice, vs HFD vehicle", "result": "significant reductions"},
      {"measurement": "liver weight", "setting": "[3]; HFD-fed mice, 28 days", "result": "reduced"},
      {"measurement": "liver weight to body weight ratio", "setting": "[3]; HFD-fed mice, 28 days", "result": "normalized"},
      {"measurement": "7-dehydrocholesterol reductase (Dhcr) expression", "setting": "[4]", "result": "no significant changes"},
      {"measurement": "Acaca mRNA expression", "setting": "[4]", "result": "significantly decreased"},
      {"measurement": "Crebp expression", "setting": "[4]", "result": "did not affect"},
      {"measurement": "Dgat2 expression", "setting": "[4]", "result": "did not affect"},
      {"measurement": "Fabp1 mRNA expression", "setting": "[4]", "result": "significantly decreased"},
      {"measurement": "Fasn mRNA expression", "setting": "[4]", "result": "significantly decreased"},
      {"measurement": "G6pdx mRNA expression", "setting": "[4]", "result": "significantly decreased"},
      {"measurement": "Hmgcr expression", "setting": "[4]", "result": "no significant changes"},
      {"measurement": "LDL receptor (Lldr) expression", "setting": "[4]", "result": "no significant changes"},
      {"measurement": "Nr1h3 expression", "setting": "[4]", "result": "no significant changes"},
      {"measurement": "Pparg expression", "setting": "[4]", "result": "did not affect"},
      {"measurement": "Scd1 mRNA expression", "setting": "[4]", "result": "significantly decreased"},
      {"measurement": "Srebp1 expression", "setting": "[4]", "result": "did not affect"},
      {"measurement": "hormone-sensitive lipase (Hsl) mRNA expression", "setting": "[4]", "result": "no significant changes"},
      {"measurement": "Cd36 mRNA expression", "setting": "[4]; p < 0.05", "result": "significantly downregulated"},
      {"measurement": "lipoprotein lipase (Lpl) mRNA level", "setting": "[4]; p < 0.05", "result": "significant decrease"},
      {"measurement": "interaction with transporter", "setting": "[5]", "result": "interacts"},
      {"measurement": "binding inhibition", "setting": "[6]", "result": "modest binding inhibition"}
    ]}
  ]
}
